≈ marks a conversion by molar mass, not a printed value. Like-named read-outs stand apart in the source and are kept apart here. Non-standard residues stand in square brackets, D forms with d. Residues, ends and D or L forms follow the SMILES beside them. Ac6c = NC1(C(=O)O)CCCCC1
How the values were obtained:
[1] = test system: C. neoformans H99 (serotype A)
[2] = test system: C. neoformans 1841 (serotype D)
C. neoformans 1841 [3] = assay: Scanning electron microscopy, damaged cells; type: cell-based, Cryptococcus neoformans; conditions: 200 μmol/L, 10^8 CFU/mL, 3 h, 30°C
Protocol: Overnight cultures of C. neoformans 1841 were prepared as described and adjusted with 50% SAB in phosphate buffer to reach 1 × 10^8 CFU/mL. Aqueous peptide solutions (20 μL) were added to the cell suspension (80 μL) to give a final peptide concentration of 200 μmol/L. Samples were incubated at 30°C on an orbital shaker (750 rpm) for 3 h. Samples were centrifuged (2,000 × g, 10 min, 4°C, Microfuge 22R, Beckmann Coulter), cell pellets were washed with ice-cold phosphate-buffered saline (PBS, 100 μL) and centrifuged again. Cell pellets were re-suspended in PBS (25 μL) and adhered overnight in humid atmosphere to glass coverslips (Borosilicate Glass, VWR International GmbH) previously coated with 0.001% poly-L-lysine (in case of Critical-Point Drying). Cells were fixed (2% glutaraldehyde, 2% paraformaldehyde, in PBS) for 60 min and afterwards stained with 1% OsO4 in PBS for 60 min. The cells were gradually dehydrated in ethanol series (30, 50, 70, 85, 90, 96% (once), and 100% (thrice) for 10 min. The coverslips were critical-point-dried (Baltec CPD 030, BAL-TEC GmbH, Schalksmühle, Germany) or air-dried after incubation with HMDS (3 min, RT) and sputter coated with 20 nm gold/palladium (Baltec MED 020, BAL-TEC GmbH). Cells were visualized using the SEM secondary electron detector (Zeiss EVO LS 15 LaB6, Carl Zeiss Microscopy Deutschland GmbH).
GraphPad Prism 10.0.3 software was used for statistical analysis of the recorded data. A Dunnett’s multiple comparisons test (Ordinary-one-way ANOVA) was performed.

[4] = test system: C. neoformans KN99α (serotype A, mating type MATα)
[5] = test system: C. neoformans strains 1841, H99, and KN99α; assay: Antifungal activity assay (CFU); type: cell-based, Cryptococcus neoformans; conditions: only small colonies appearing after more than 24 h
C. neoformans H99 = assay: Antifungal activity assay (CFU on SAB agar); type: cell-based, Cryptococcus neoformans; conditions: treatment 3 h, 30 °C, mean ± SD, n = 4; for cell count C. neoformans H99, 24 h: CFU counted after 24 h; for cell count C. neoformans H99, 48 h: CFU counted after 48 h
[6] = test system: C. neoformans strains 1841, H99, and KN99α; assay: Broth microdilution assay (MIC); type: cell-based, Cryptococcus neoformans
C. neoformans 1841 [7] = assay: Antifungal activity assay (CFU on SAB agar); type: cell-based, Cryptococcus neoformans; conditions: treatment 3 h, 30 °C, mean ± SD, n = 4; for cell count C. neoformans 1841, 24 h: CFU counted after 24 h; for cell count C. neoformans 1841, 48 h: CFU counted after 48 h
C. neoformans KN99α = assay: Antifungal activity assay (CFU on SAB agar); type: cell-based, Cryptococcus neoformans; conditions: treatment 3 h, 30 °C, mean ± SD, n = 4; for cell count C. neoformans KN99α, 24 h: CFU counted after 24 h; for cell count C. neoformans KN99α, 48 h: CFU counted after 48 h
C. neoformans 1841 [8] = assay: Time-kill assay; type: cell-based, Cryptococcus neoformans; conditions: 2.5 μmol/L, 30°C, up to 24 h
Protocol: The kinetic effects of the antifungal activity were determined by diluting overnight cultures to 5 × 10^4 CFU/mL with 50% SAB in phosphate buffer. Aqueous peptide solutions (20 μL) were added to the cell suspension (80 μL) to give a final peptide concentration of 2.5 μmol/L. Samples were incubated at 30°C on an orbital shaker (750 rpm, Titramax 1,000, Heidolph Instruments GmbH & Co. KG) for 24 h. Before incubation (0 min) and after 45 min, 90 min, 3 h, 6 h, and 24 h incubation, aliquots (10 μL) of samples were taken and diluted with phosphate buffer (10 mmol/L, pH 7.5) to observe countable cell colonies. Aliquots (100 μL) of the diluted cell suspensions were plated on SAB agar plates. Plates were incubated at 30°C and colonies were counted after 24 h.

[9] = 1841 (serotype D, 24 h, pH 7.5)
[10] = 1841 (serotype D, 48 h, pH 7.5)
[11] = KN99α (serotype A, mating type MATα, 24 h)
[12] = KN99α (serotype A, mating type MATα, 48 h)
[13] = broth microdilution, 50% SAB in phosphate buffer, 30°C, read after 24 h, n = 6
[14] = broth microdilution, 50% SAB in phosphate buffer, 30°C, read after 48 h, n = 6

Compound | MIC (μmol/L) H99 24 h ([1]; H99 (serotype A, 24 h)) [µmol/L] | MIC (μmol/L) H99 48 h ([1]; H99 (serotype A, 48 h)) [µmol/L] | MIC (μmol/L) 1841 24 h [2, 9] [µmol/L] | MIC (μmol/L) 1841 48 h [2, 10] [µmol/L] | damaged cells in SEM (C. neoformans 1841 [3]) | MIC (μmol/L) KN99α 24 h [4, 11] [µmol/L] | MIC (μmol/L) KN99α 48 h [4, 12] [µmol/L] | colony formation on agar [5] | cell count C. neoformans H99, 24 h (C. neoformans H99; 0.25 µmol/L) | cell count C. neoformans H99, 48 h (C. neoformans H99; 0.25 µmol/L) | cell count C. neoformans H99, 24 h (C. neoformans H99; 2.5 µmol/L) | cell count C. neoformans H99, 48 h (C. neoformans H99; 2.5 µmol/L) | cell count C. neoformans H99, 24 h (C. neoformans H99; 25 µmol/L) | cell count C. neoformans H99, 48 h (C. neoformans H99; 25 µmol/L) | cell count C. neoformans 1841, 24 h (C. neoformans 1841 [7]; 0.25 µmol/L) | cell count C. neoformans 1841, 48 h (C. neoformans 1841 [7]; 0.25 µmol/L) | cell count C. neoformans 1841, 24 h (C. neoformans 1841 [7]; 2.5 µmol/L) | cell count C. neoformans 1841, 48 h (C. neoformans 1841 [7]; 2.5 µmol/L) | cell count C. neoformans 1841, 24 h (C. neoformans 1841 [7]; 25 µmol/L) | cell count C. neoformans 1841, 48 h (C. neoformans 1841 [7]; 25 µmol/L) | also measured
CC(C)C[C@H](NC(=O)[C@@H]1CCCN1C(=O)[C@@H]1CCCN1C(=O)[C@H](CCCNC(=N)N)NC(=O)[C@H](Cc1ccc(O)cc1)NC(=O)[C@@H]1CCCN1C(=O)[C@@H]1CCCN1C(=O)[C@H](CCCNC(=N)N)NC(=O)C1(NC(=O)[C@H](CCCNC(=N)N)NC(=O)[C@@H]2CCCN2C(=O)[C@H](CCCCN)NC(=O)[C@@H]2CCCN2C(=O)[C@H](CCCNC(=N)N)NC(=O)[C@@H]2CCCN2C(=O)[C@H](CCCNC(=N)N)NC(=O)[C@@H](NC(=O)[C@H](CCCNC(=N)N)NC(=O)[C@@H](N)CC(=O)O)C(C)C)CCCCC1)C(=O)N1CCC[C@H]1C(N)=O [Chex1Arg20 scr] (H-DRVRPRPKPR[Ac6c]RPPYRPPLP-NH2; N-terminus assumed) | 26 (≈ 64.4 µg/mL) | 52 (≈ 129 µg/mL) | 13 to 26 | 26 to 52 | slightly lower percentage of damaged cells than Chex1Arg20 | 26 (≈ 64.4 µg/mL) | 52 (≈ 129 µg/mL) | – | – | – | – | – | – | – | – | – | – | – | – | – | MIC (mg/L) 1841 24 h ([2]; 1841 (serotype D, 24 h)): 32 to 64 mg/L; MIC (mg/L) 1841 48 h ([2]; 1841 (serotype D, 48 h)): 64 to 128 mg/L
CC(C)C[C@H](NC(=O)[C@H](Cc1ccc(O)cc1)NC(=O)[C@@H]1CCCN1C(=O)[C@H](CCCNC(=N)N)NC(=O)[C@@H]1CCCN1C(=O)[C@H](CCCCN)NC(=O)[C@H](CC(=O)O)NC(=O)[C@@H]1CCCN1C(=O)[C@H](CCCNC(=N)N)NC(=O)C1(N)CCCCC1)C(=O)N1CCC[C@H]1C(=O)N[C@@H](CCCNC(=N)N)C(=O)N1CCC[C@H]1C(=O)N[C@@H](CCCNC(=N)N)C(=O)N1CCC[C@H]1C(=O)N1CCC[C@H]1C(=O)N[C@@H](CCCNC(=N)N)C(=O)N1CCC[C@H]1C(=O)N[C@H](C(=O)N[C@@H](CCCNC(=N)N)C(N)=O)C(C)C [Chex1Arg20] (H-[Ac6c]RPDKPRPYLPRPRPPRPVR-NH2; N-terminus assumed) | 1.6 (≈ 3.96 µg/mL) | 1.6 to 3.2 | 1.6 (≈ 3.96 µg/mL) | 3.2 (≈ 7.92 µg/mL) | only a small portion showed deep indentations | 1.6 (≈ 3.96 µg/mL) | 3.2 (≈ 7.92 µg/mL) | delayed colony formation | 1.4 ± 0.7 x 10^4 CFU/mL | 1.6 ± 0.8 x 10^4 CFU/mL | 1.5 ± 1.0 x 10^4 CFU/mL | 2.5 ± 0.8 x 10^4 CFU/mL | 0.0 ± 0.0 x 10^4 CFU/mL | 0.8 ± 0.2 x 10^4 CFU/mL | 2.7 ± 0.0 x 10^4 CFU/mL | 2.8 ± 0.1 x 10^4 CFU/mL | 0.0 ± 0.0 x 10^4 CFU/mL | 0.5 ± 0.1 x 10^4 CFU/mL | 0.0 ± 0.0 x 10^4 CFU/mL | 0.0 ± 0.0 x 10^4 CFU/mL | MIC (mg/L) H99 48 h ([1]; H99 (serotype A, 48 h)): 4 to 8 mg/L; MIC [6]: 4 to 16 µg/mL; cell count C. neoformans KN99α, 24 h (C. neoformans KN99α; 0.25 µmol/L): 2.7 ± 0.4 x 10^4 CFU/mL; cell count C. neoformans KN99α, 48 h (C. neoformans KN99α; 0.25 µmol/L): 2.7 ± 0.4 x 10^4 CFU/mL; cell count C. neoformans KN99α, 24 h (C. neoformans KN99α; 2.5 µmol/L): 1.0 ± 0.6 x 10^4 CFU/mL; cell count C. neoformans KN99α, 48 h (C. neoformans KN99α; 2.5 µmol/L): 1.8 ± 1.2 x 10^4 CFU/mL; cell count C. neoformans KN99α, 24 h (C. neoformans KN99α; 25 µmol/L): 0.5 ± 0.8 x 10^4 CFU/mL; cell count C. neoformans KN99α, 48 h (C. neoformans KN99α; 25 µmol/L): 0.8 ± 0.9 x 10^4 CFU/mL
gu-OIOIORPVYOPRPRPPHPRL-OH [Api795] | – | – | – | – | – | – | – | delayed colony formation | 3.3 ± 0.3 x 10^4 CFU/mL | 3.6 ± 0.6 x 10^4 CFU/mL | 1.4 ± 0.4 x 10^4 CFU/mL | 2.0 ± 0.2 x 10^4 CFU/mL | 0.1 ± 0.0 x 10^4 CFU/mL | 0.5 ± 0.2 x 10^4 CFU/mL | 1.4 ± 0.6 x 10^4 CFU/mL | 1.4 ± 0.6 x 10^4 CFU/mL | 2.1 ± 0.1 x 10^4 CFU/mL | 2.1 ± 0.1 x 10^4 CFU/mL | 0.2 ± 0.0 x 10^4 CFU/mL | 0.2 ± 0.0 x 10^4 CFU/mL | MIC (μmol/L) H99 24 h [1, 13]: 3.2 µmol/L; MIC (μmol/L) H99 48 h [1, 14]: 3.2 µmol/L; MIC (μmol/L) 1841 24 h ([2]; broth microdilution, 50% SAB in phosphate buffer pH 7.5, 5 × 10^4 CFU/mL, 30°C, read after 24 h, mean of six replicates (n = 6)): 1.6 µmol/L; MIC (μmol/L) 1841 48 h ([2]; broth microdilution, 50% SAB in phosphate buffer pH 7.5, 5 × 10^4 CFU/mL, 30°C, read after 48 h, n = 6): 3.2 µmol/L; time-dependent antifungal effect (C. neoformans 1841 [8]): delayed antifungal effect; cell count C. neoformans KN99α, 24 h (C. neoformans KN99α; 0.25 µmol/L): 2.9 ± 0.3 x 10^4 CFU/mL; cell count C. neoformans KN99α, 48 h (C. neoformans KN99α; 0.25 µmol/L): 2.9 ± 0.4 x 10^4 CFU/mL; cell count C. neoformans KN99α, 24 h (C. neoformans KN99α; 2.5 µmol/L): 1.7 ± 0.7 x 10^4 CFU/mL; cell count C. neoformans KN99α, 48 h (C. neoformans KN99α; 2.5 µmol/L): 1.9 ± 0.8 x 10^4 CFU/mL; cell count C. neoformans KN99α, 24 h (C. neoformans KN99α; 25 µmol/L): 0.1 ± 0.1 x 10^4 CFU/mL; cell count C. neoformans KN99α, 48 h (C. neoformans KN99α; 25 µmol/L): 0.4 ± 0.1 x 10^4 CFU/mL; MIC (mg/L) KN99α 24 h [4, 13]: 4 to 8 mg/L; MIC (μmol/L) KN99α 24 h [4, 13]: 1.6 to 3.2 µmol/L; MIC (μmol/L) KN99α 48 h [4, 14]: 3.2 µmol/L
